Experiments:
HIV patients = conditions: cited from earlier work; for efficacy in clinical trails investigating HIV-mediated neuropathic pain: Shlay et al. (1998), Kieburtz et al. (1998)
rat sciatic nerve [1] = assay: CGRP-release from isolated rat sciatic nerve upon stimulation (Method C); conditions: Capsaicin 100 nM, t0-t5 stimulation period
rat DRG neurons = assay: Inhibition of gp120-mediated CGRP-release from rat DRG neurons (Method B); conditions: for IC50: Rattus norvegicus, DRG neuron; for inhibition of gp120-mediated CGRP release from DRG neurons: result in words
rat sciatic nerve [2] = assay: gp120-mediated CGRP release from rat sciatic nerve in the presence or absence of VR1 inhibitors (Method C); conditions: for block of CGRP release from gp120-stimulated sciatic nerve: result in words; for CGRP release: gp120 250 pg/ml in the presence of CAZ (1 µM) or Cpd. 1 (20 nM)
Method: After 5 min, 10 min and 20 min supernatant was substituted with fresh solution or RAB buffer pH 7.4 and the samples placed on ice until analysis. All samples were analyzed by EIA for CGRP release and normalized by the dry weight of the particular sciatic nerve.
Male Wistar rats (180-220 g) are anesthetized using Isofluran, Dinitricoxide and Oxygen (5:68:27 (v/v/v)) in a vaporisator. The hind legs are shaved and opened along the femur. Using tweezers and scissors the Musculus gluteus superficialis and Musculus bicepsfemoris are separated gaining access to the Nervus ischiadicus. The Nervus ischiadicus is cut proximally 1 cm before entry into the spine and laterally at the branching of Nervus fibularis and Nervus tibialis. […] The fixed nerve is transferred to a 1.5 ml eppendorf tube containing 300 µl RAB, pH 7.4 at RT.
To reset all samples, sciatic nerve preparations are transferred 5 min prior to stimulation to fresh 300 µl of RAB pH 7.4 (prestimulation ― point zero). Stimulation is performed for 5 or 10 min with Capsaicin solution (100 nM Capsaicin in RAB pH 7.4), RAB pH 4.5 or preheated RAB pH 7.4 (50°C) in the presence or absence of inhibitors. To evaluate post-stimulation CGRP-release sciatic nerve preparations are transferred in 5-min-intervals to fresh tubes containing RAB pH 7.4. Supernatants of each sample are transferred to EIA plates (CGRP Release Kit, SpiBio, Paris, France) and analyzed in triplicate (3 x 100µl) according to the manufacterer's protocol. Upon completion of the experiment the sciatic nerve preparations are carefully removed from the spatula, dried on 3MM paper and weighed. CGRP concentrations obtained from the CGRP-release EIA are finally normalized to the dry weight of the sciatic nerve preparations.

## CN(C)CCC=C1c2ccccc2CCc2ccccc21 [Amitriptyline]
HIV patients
  efficacy in clinical trails investigating HIV-mediated neuropathic pain: completely ineffective

## COc1cc(CNC(=O)CCCC/C=C/C(C)C)ccc1O [CAPS, Capsaicin]
Rat sciatic nerve [1]; time 0 min
  CGRP-release: 0.05923 ng/mg ng CGRP/mg nerve dry weight
Rat sciatic nerve [1]; time 5 min
  CGRP-release: 5.9+/-1.3 ng/mg ng CGRP/mg nerve dry weight
Rat sciatic nerve [1]; time 10 min
  CGRP-release: 5.3+/-0.2 ng/mg ng CGRP/mg nerve dry weight
Rat sciatic nerve [1]; time 20 min
  CGRP-release: 4.0+/-0.1 ng/mg ng CGRP/mg nerve dry weight
Rat sciatic nerve [1]; time -5 min
  CGRP-release: 0 ng CGRP/mg nerve dry weight
HIV patients; randomized, double-masked clinical trail, Paice et al. (2000)
  pain in HIV patients with chronic DSP: strongly increased pain

## Oc1cc2c(cc1O)CN(C(=S)NCCc1ccc(Cl)cc1)CCC2 [CAZ, Capsazepin]
Rat DRG neurons
  IC50: 109 nM
  inhibition of gp120-mediated CGRP release from DRG neurons: completely inhibited
Rat sciatic nerve [2]
  block of CGRP release from gp120-stimulated sciatic nerve: capable to block CGRP release

## N#CC(=C(/N)Sc1ccccc1N)/C(C#N)=C(\N)Sc1ccccc1N [Compound U0126]
Rat DRG neurons
  IC50: 1.9 nM
  inhibition of gp120-mediated CGRP release from DRG neurons: completely inhibited

## O=C(NCc1ccc(OC(F)(F)F)cc1)Nc1cccc2c1CC(O)CC2 (centres unmarked) [Cpd. Example 1, N-(7-hydroxy-5,6,7,8-tetrahydro-naphthalen-1-yl)-N'-(4-trifluoromethoxy-benzyl)-urea]
Rat DRG neurons
  IC50: 0.44 nM
  inhibition of gp120-mediated CGRP release from DRG neurons: completely inhibited
Rat sciatic nerve [2]; time 0 min
  CGRP release: 0
Rat sciatic nerve [2]; time 5 min
  CGRP release: 0
Rat sciatic nerve [2]; time 10 min
  CGRP release: 0
Rat sciatic nerve [2]; time 20 min
  CGRP release: 0
Rat sciatic nerve [2]; time -5 min
  CGRP release: 0
Rat sciatic nerve [2]
  block of CGRP release from gp120-stimulated sciatic nerve: capable to block CGRP release

## CC(C)Cc1ccc(C(C)C(=O)O)cc1 (centres unmarked) [Ibuprofen]
Rat DRG neurons
  inhibition of gp120-mediated CGRP release from DRG neurons: can not inhibit

## Cc1cccc(C)c1OCC(C)N (centres unmarked) [Mexiletine]
HIV patients
  efficacy in clinical trails investigating HIV-mediated neuropathic pain: completely ineffective

## CC(Cc1ccc(O)c(O)c1)C(C)Cc1ccc(O)c(O)c1 (centres unmarked) [NGDA, Nordihydroguaiaretic Acid]
Rat DRG neurons
  IC50: 43000 nM
  inhibition of gp120-mediated CGRP release from DRG neurons: completely inhibited

## COc1cccc(-c2cc(=O)c3ccccc3o2)c1N [PD98059]
Rat DRG neurons
  IC50: 9.36 nM
  inhibition of gp120-mediated CGRP release from DRG neurons: completely inhibited

## CCN(CC)CCCC(C)Nc1c2ccc(Cl)cc2nc2ccc(OC)cc12 (centres unmarked) [QN, Quinacrine]
Rat DRG neurons
  IC50: 1530 nM
  inhibition of gp120-mediated CGRP release from DRG neurons: completely inhibited

## C[S+]([O-])c1ccc(-c2nc(-c3ccncc3)c(-c3ccc(F)cc3)[nH]2)cc1 (centres unmarked) [SB203580]
Rat DRG neurons
  inhibition of gp120-mediated CGRP release from DRG neurons: completely inhibited
